Type in all cases: cell-based, human
Data set [1] has as its system iFECD. Description: Cell survival rate (Cell Titer-Glo Luminescent Cell Viability Assay). Here is the method: were seeded on a 96-well plate at a ratio of 3×10^3 cells per well, and cultured until reaching confluence at 37° C. (5% CO2). DMEM+10% FBS+1% P/S was used as the medium. After 24 hours, the medium was removed. SB431542 (WAKO, 192-16541) and EW-7197 (Selleck Chemicals, 57530) were added so that the final concentration would each be 0.01, 0.1, 1, or 10 μM, and the medium was cultured for 48 hours. DMEM+2% FBS+1% P/S was used as the medium. After 24 hours, the cell morphology was observed under a phase contrast microscope. After observation, the cell survival rate was analyzed using Cell Titer-Glo Luminescent Cell Viability Assay by the following procedures. The medium was discarded so that the amount would be 50 μl per well, and Cell Titer-Glo Luminescent Cell Viability Assay solution (Promega, G7572) was added at 50 μl/well so that the ratio to the medium would be 1:1. The process was hereinafter conducted without exposure to light. The mixture was mixed thoroughly using a shaker for 2 minutes at about 120 min^-1, and incubated for 10 minutes. After the incubation, 80 μl was transferred to an Assay plate (Corning, 3912, Assay plate 96 well, white polystyrene), and absorbance was measured using a GloMax-Multi Detection System (Promega, E7051).
For orientation: In ATP-based viability assays light output follows the ATP content of the culture.

Data set [2] relates to Caspase 3/7. In words: Caspase 3/7 activity (Caspase-Glo 3/7 Assay) in TGF-β-stimulated iFECD. As for the experimental part:
were seeded on a 96-well plate at a ratio of 3×10^3 cells per well, and cultured until reaching confluence at 37° C. (5% CO2). DMEM+10% FBS+1% P/S was used as the medium. After 24 hours, the medium was removed. SB431542 (WAKO, 192-16541) and EW-7197 (Selleck Chemicals, 57530) were added so that the final concentration would each be 0.01, 0.1, 1, or 10 μM, and the medium was cultured for 24 hours. DMEM+2% FBS+1% P/S was used as the medium. After 24 hours, the medium was removed. 10 ng/ml of Transforming Growth Factor-132 Human recombinant (WAKO, 200-19911) and SB431542 were added so that the final concentration would be 0.01, 0.1, 1, and 10 μM, and the medium was cultured for 24 hours. DMEM+2% FBS+1% P/S was used as the medium. After 24 hours, the cell morphology was observed under a phase contrast microscope. After observation, Caspase 3/7 activity was measured using Caspase-Glo 3/7 Assay by the following procedures. The medium was discarded so that the amount would be 50 μl per well, and a Caspase Glo 3/7 Assay Reagent (mixture of Caspase-Glo 3/7 Assay Buffer and Caspase-Glo 3/7 Assay Substrate) (Promega, G8091) solution was added at 50 μl/well so that the ratio thereof to the medium would be 1:1. The process was hereinafter conducted without exposure to light. The mixture was mixed thoroughly using a shaker for 2 minutes at about 120 min^-1, and incubated for 40 minutes at room temperature. After the incubation, 80 μl was transferred to an Assay plate (Corning, 3912, Assay plate 96 well, white polystyrene), and absorbance was measured using a GloMax-Multi Detection System (Promega, E7051). A caspase inhibitor, i.e., 10μ MZ-VD-FMK (WAKO, 262-02061) was used as a positive control.

In data set [3] the test system is fibronectin. In words: Western blot for fibronectin in TGF-β-stimulated iFECD. Particulars: any of the concentrations 0.1, 1, 10 μM. Here is the method: (§1) […] were seeded on a 12-well plate at a ratio of 8×10^4 cells per well, and cultured at 37° C. (5% CO2) for 24 hours. DMEM+10% FBS+1% P/S was used as the medium. After 24 hours, the medium was removed. EW-7197 (Selleck Chemicals, 57530) was added so that the final concentration would be 0.1, 1, or 10 μM, and SB431542 (WAKO, 192-16541) was added so that the final concentration would be 10 μM, and the medium was cultured for 24 hours. DMEM+2% FBS+1% P/S was used as the medium. After 24 hours, the medium was removed and cultured […] so that the final concentration of 10 ng/ml of Transforming Growth Factor-132 Human recombinant (WAKO, 200-19911) and […] would be 0.1, 1, and 10 μM, and that of SB431542 would be 10 μM. DMEM+2% FBS+1% P/S was used as the medium. After 24 hours, the cell morphology and apoptosis were observed under a phase contrast microscope. To retrieve floating and dead cells, the medium was retrieved on ice, cells were washed twice with 1×PBS(-) and the solution thereof was also retrieved. The solution was centrifuged for 5 min at 4° C. and 800 g and the supernatant was discarded to obtain a precipitate. […] The detected band intensities were analyzed with Lumino Image Analyzer LAS-4000 mini (Fuji Film) and ImageQuantTM software (GE Healthcare).
A general note: Immunoblotting shows a protein as a band on a membrane.

Data set [4] deals with PARP. In words: Western blot for PARP in TGF-β-stimulated iFECD. The following applies: 0.1, 1, 10 μM. Here is the method:
as §1

Turning to `Cc1cccc(-c2[nH]c(CNc3ccccc3F)nc2-c2ccc3ncnn3c2)n1` [EW-7197, N-((4-([1,2,4]triazolo[1,5-a]pyridin-6-yl)-5-(6-methylpyridin-2-yl)-1H-imidazol-2-yl)methyl)-2-fluoroaniline], the “cell survival rate compared to a control group” value in data set [1] (iFECD, all concentrations of 0.01, 0.1, 1, and 10 μM, 48 hours) is on record as “a significant difference was not found”. The “toxicity to cells in a cell survival rate test” value in data set [1] (summary statement) was “hardly found”. The “activity of Caspase 3/7” value in data set [2] (at 0.01 μM) is on record as “inhibited significantly”. The “Caspase 3/7 inhibitory effect compared to SB431542” value in data set [2] (at 0.1 μM) is “higher inhibitory effect”. In data set [3], the “expression of fibronectin (about 240 kDa)” value is “suppressed to the same degree as the control group without stimulation with TGF-β or 10 μM of SB431542”. In addition, in data set [4], the “PARP (about 89 kDa)” value is listed as “suppressed to the same degree as the control group without stimulation with TGF-β or 10 μM of SB431542”.
